Source: publication PMC6934184, “Selective DNA-PKcs inhibition extends the therapeutic index of localized radiotherapy and chemotherapy” (The Journal of Clinical Investigation, 2019)

Biological target: T1, RPS6KA5 (MSK1) (Homo sapiens, UniProt O75582)
T1 construct: purchased Thermo Fisher Scientific (Life Technologies) SelectScreen
Test: SelectScreen Z'LYTE
Type: biochemical
Outline: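 SelectScreen broad panel; activity (Z'LYTE, Adapta) plus binding formats. ATP: Km app for CSF1R Z'LYTE; 10 for CAMK1 Adapta. Readout = % per kinase.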

T1 sequence (O75582 whole entry): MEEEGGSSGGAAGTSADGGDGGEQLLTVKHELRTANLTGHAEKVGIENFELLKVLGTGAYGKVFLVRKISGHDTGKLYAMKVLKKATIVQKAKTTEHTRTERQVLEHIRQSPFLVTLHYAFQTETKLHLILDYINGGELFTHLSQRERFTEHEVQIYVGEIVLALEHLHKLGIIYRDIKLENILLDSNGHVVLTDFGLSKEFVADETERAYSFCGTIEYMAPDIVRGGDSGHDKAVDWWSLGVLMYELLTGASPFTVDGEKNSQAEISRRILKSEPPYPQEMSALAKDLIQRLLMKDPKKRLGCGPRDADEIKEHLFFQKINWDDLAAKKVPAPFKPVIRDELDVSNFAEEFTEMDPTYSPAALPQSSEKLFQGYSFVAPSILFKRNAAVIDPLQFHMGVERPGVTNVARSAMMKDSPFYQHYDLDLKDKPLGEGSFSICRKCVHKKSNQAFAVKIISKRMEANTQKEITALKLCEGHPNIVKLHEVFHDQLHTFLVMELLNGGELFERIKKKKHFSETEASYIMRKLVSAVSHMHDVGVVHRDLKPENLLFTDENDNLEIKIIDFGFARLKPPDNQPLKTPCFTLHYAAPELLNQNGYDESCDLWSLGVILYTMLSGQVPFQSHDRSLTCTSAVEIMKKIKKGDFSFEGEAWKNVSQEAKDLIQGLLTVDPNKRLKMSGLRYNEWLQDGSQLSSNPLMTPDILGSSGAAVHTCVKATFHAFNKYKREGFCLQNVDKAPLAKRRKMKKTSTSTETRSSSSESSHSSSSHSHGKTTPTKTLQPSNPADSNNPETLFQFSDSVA

## CN(C(=O)CN1CCOCC1)c1ccc2sc3c(-c4cccc5c(=O)cc(N6CC7CCC(C6)O7)oc45)cccc3c2c1 [NU5455]
  inhibition at 1 µM: 7.4%
